According to patent publication US9714225B2, “Processes for the preparation of lorcaserin” (CADILA HEALTHCARE LIMITED, priority 2013, dated 2017):
Counter-ions that a name gives are not always drawn.

Key:
[1] = Stability of crystalline Form I of lorcaserin hydrochloride stored packed for at least 3 months; format: physicochemical; settings: 25° C./60% RH and 40° C./75% RH
Description: The crystalline Form I of lorcaserin hydrochloride having less than 0.5% water as manufactured by the process of the present invention was subjected to stability for at least 3 months at 25° C./60% RH or at about 40° C./75% RH.
In a further aspect, the stable crystalline Form I of lorcaserin hydrochloride can be stored under nitrogen atmosphere and packed in a double polythene bag which is either heat sealed or twisted and tied with a thread (primary packing). The primary packing containing the crystalline Form I of lorcaserin hydrochloride can be kept inside a black color polyethylene bag containing a desiccant (molecular sieves) which is either heat sealed or twisted and tied, and the above double polyethylene bags may further be placed inside a triple laminated bag, optionally containing a desiccant which is either heat sealed or twisted and tied. Finally, the triple laminated bag can be kept inside a closed high density polyethylene (HDPE) container and stored in a controlled environment chamber at 25° C. and/or 40° C.

[2] = cited from earlier work
[3] = 2 Months, LDPE bag closed with a heat seal (Table 1)
[4] = 2 Months, LDPE bag closed with a twist and tie (Table 2)
[5] = 3 Months, LDPE bag closed with a heat seal (Table 1)
[6] = 3 Months, LDPE bag closed with a twist and tie (Table 2)

## C[C@H]1CNCCc2ccc(Cl)cc21.Cl [(R)-8-chloro-1-methyl-2,3,4,5-tetrahydro-1H-3-benzazepine hydrochloride]
[1]; 1 Month, LDPE bag closed with a heat seal (Table 1), specification Less than 0.5% w/w
  Water (%): 0.31%
[1]; 1 Month, LDPE bag closed with a heat seal (Table 1), specification: should confirm the Form-I
  X-Ray Diffraction: Form I
[1]; 1 Month, LDPE bag closed with a twist and tie (Table 2), specification Less than 0.5% w/w
  Water (%): 0.31%
[1]; 1 Month, LDPE bag closed with a twist and tie (Table 2), specification: should confirm the Form-I
  X-Ray Diffraction: Form I
[1]; 1 Month, LDPE bag purged with nitrogen closed with a heat seal (Table 1), specification White to off-white
  Description: off-
[1]; 1 Month, LDPE bag purged with nitrogen closed with a twist and tie (Table 2), specification White to off-white
  Description: off-
[1]; [3]
  Description: off-
  Water (%): 0.35%
  X-Ray Diffraction: Form I
[1]; [4]
  Description: off-
  Water (%): 0.35%
  X-Ray Diffraction: Form I
[1]; [5]
  Description: off-white
  Water (%): 0.35%
  X-Ray Diffraction: Form I
[1]; [6]
  Description: off-white
  Water (%): 0.35%
  X-Ray Diffraction: Form I
[2]; DVS, between about 40 and about 80% RH
  moisture adsorbed (calculated): about 3.8%
[2]; DVS
  relative humidity (RH) above which moisture is readily adsorbed: 40-60%
[2]
  crystalline form by XRPD after the DVS cycle: conversion to the hemihydrate (Form III)

## C[C@H]1CNCCc2ccc(Cl)cc21 [Form III, (R)-8-chloro-1-methyl-2,3,4,5-tetrahydro-1H-3-benzazepine hydrochloride hemihydrate]
[2]; DVS, at 90% RH
  water adsorbed: less than 0.5%
[2]
  crystalline form by XRPD after the DVS cycle: no change in crystalline form
